Laboratory results published in US20260224555A1, “NEW PHENYLQUINOLONE COMPOUND HAVING ANTIBACTERIAL AND ANTI-CANCER FUNCTIONS AND PREPARATION THEREOF” (AlphaMol Science Ltd (Shanghai), priority 2022, published 2026).
Values after ≈ are worked out from the molar mass of the structure shown. Read-outs that look alike come from different tables or passages of the source.

Tests used:
E. coli ATCC 25922 = assay: In vitro antibacterial activity assay (MIC, broth dilution); format: cell-based; settings: Escherichia coli
From the text: (§1) The method used to indicate the activity of the compounds in this example is to record the minimum inhibitory concentration (MIC) of the compounds against bacteria. The specific experimental method is as follows:
(§2) 1. The bacterial liquid cultured from a single colony was taken, and diluted into autoclaved CAMHB broth in a ratio of 1:1000, and mixed well.
(§3) 2. The prepared drug solution was filtered through a sterile 0.22 µm syringe filter and placed in a sterile EP tube for later use.
(§4) 3. A 96-well plate was taken, and 20 µL of drug solution ([…]) was added to each well in the first column of the 96-well plate. Then, 180 µL of diluted bacterial liquid was added and mixed well (Perform 3 replicate rows for each drug).
(§5) The same process was performed for the hydrochloride drug.
(§6) 4. 100 μL of diluted bacterial liquid was added to each well in the remaining 11 columns of the 96-well plate. Drugs are the same as above.
(§7) 5. Serial dilution: 100 μL of liquid was taken from the first column to the second column, mixed well, then 100 μL of liquid was taken from the second column to the third column, mixed well, and so on, sequentially diluting down to the last column (column 12). After mixing column 12 well, 100 μL of liquid thereof was discarded. The drug concentration in each well was decreased by two-fold serially (the concentration in the first well is 40 μg/mL).
(§8) 6. Blank CAMHB broth without added bacteria liquid was added to 3 blank wells in the 96-well plate, as negative control.
(§9) 7. The diluted bacterial liquid was added to 3 blank wells in the 96-well plate, as positive control.
(§10) 8. Incubated at 37° C. for 16 hours.
(§11) 9. Results reading: the minimum inhibitory concentration is the minimum drug concentration at which no bacterial growth is visible to the naked eye and without turbidity.

S. aureus ATCC 43300 = assay: as above; format: cell-based; settings: Staphylococcus aureus
From the text: as §1, §2, §3, §4, §5, §6, §7, §8, §9, §10, §11

Hela = assay: In vitro anticancer activity test (MTT cell proliferation); format: cell-based; settings: Homo sapiens, read-out: Hela Average inhibition rate %
Method: The anticancer activity of the compounds was tested using an in vitro cancer cell tests. The specific test method is as follows:
1. Cell recovery and culture method: the cryovial was taken out from the liquid nitrogen container firstly, soaked directly in 37° C. warm water, and shaked from time to time to let it thaw as soon as possible. Then, the cryovial was transferred to a clean bench, and the lid was open. The cell suspension was taken into a centrifuge tube using a rubber-tipped dropper and more than 10 times the culture medium was added, mixed well, and centrifuged at 50 g for 5 minutes. Then, the supernatant was discarded, complete culture medium containing 10% fetal bovine serum was added to resuspend the cells, the cells was counted, the cell density was adjusted, and then inoculated into a culture bottle. The culture bottle was placed in a cell culture incubator at 5% CO2 and 37° C. The complete culture medium was replaced once the next day and the culture was continued.
2. Cell passaging method: adherent cells in the logarithmic growth phase were placed in a clean bench, the original culture medium was discarded, and washed three times with 1×PBS. An appropriate amount of 0.25% trypsin digestion solution was added to moisten the cells, and then the trypsin solution was aspirated. The cells were placed in a cell culture incubator at 5% CO2 and 37° C. for digestion for a suitable time, and observed under a microscope. When 90% of the cells become round, the cells were moved immediately to the clean bench and complete culture medium was added to terminate digestion. Then, the cells were dislodged by pipetting up and down with a rubber-tipped dropper to single cells. The cells were counted, and the cell density was adjusted. The cells were inoculated into a suitable culture bottle or dish, added enough complete culture medium, and placed in a cell culture incubator at 5% CO2 and 37° C. for static culture.
For suspension cells in the logarithmic phase, the original culture medium was directly centrifuged at 50 g for 5 minutes, the supernatant was discarded, and the cells were washed once with PBS and centrifuged. After discarding the supernatant, the complete culture medium was added and the cells were dispersed using a rubber-tipped dropper. The cells are counted, and the cell density was adjusted. The cells were inoculated into appropriate culture bottles or culture dishes, and sufficient complete culture medium was added, and the cells were cultured in a cell culture incubator at 5% CO2 and 37° C.
3. Cell proliferation assay: cells in good state in logarithmic phase were taken and appropriate amount of the cells was inoculated into 96-well plates according to the cell passage treatment method, with each well containing 180 μL complete medium. After the cells growth was recovered and the number of cells in each well is 5000±500, a drug was added for treatment.
After drug treatment during the experimental time, MTT solution with a final concentration of 0.5 mg/mL was added to each well, and placed in a cell culture incubator at 5% CO2 and 37° C. to allow a fully reaction of MTT with cells. After 4 hours, the solution in the 96-well plate was discarded, 100 µL of DMSO was added, and shaked to dissolve the formazan precipitated at the bottom of the plate, and the absorbance value of samples was detected at a wavelength of 570 nm using a microplate reader. Calculation method of cell viability rate:
Table 4 lists some compounds that have inhibitory effects against both of bacteria and cancer cells. In the table, the inhibitory effects against cancer cells are shown: the average proliferation inhibition rate (%) against cancer cells at the dosage of 40 μM.

[1] = tested on: Staphylococcus aureus ATCC43300; assay: Resistance test of bacteria against compounds (serial induction, 21 days); format: cell-based; settings: period of 21 days, S. aureus ATCC43300
Method: This example provides a resistance test of bacteria against compounds, and the specific experimental method is as follows.
1. […] It was ensured that among the 6 final concentrations of the drug diluted into the wells, some were higher than the original MIC of the bacteria and some were lower than the original MIC of the bacteria.
2. Preparation of bacterial liquid: 10 mL of culture medium was taken and added to a sterilized plate using a pipette, then 100 µL of the above-mentioned passaged bacterial liquid was added, and mixed well for later use.
3. The above-mentioned diluted bacterial liquid was taken and added to a 96-well plate using a pipette, 180 μL per well, 3 wells per group, 6 groups in total. 20 μL of drug solution was added to each well (note: it is necessary to replace the pipette tip each time the drug is added), so that the final drug concentrations were […], respectively. The well with 200 μL of diluted bacterial liquid was used as the positive control well, and the well with 200 μL of culture medium was used as the negative control well.
The test object was Staphylococcus aureus (S. aureus).

[2] = tested on: methicillin-resistant Staphylococcus aureus; format: in vivo, Kunming mice; settings: for reduction of necrosis area compared with the control group: 4 consecutive days, MRSA skin infection in mice
Method: Kunming mice (20±2 g) were anesthetized with chloral hydrate and shaved, and then 50 μL of 4×10^7 CFU/mL of methicillin-resistant Staphylococcus aureus was subcutaneously injected. One day later, 100 μL of 0.02, 2 and 200 mg/kg of Example 34 were subcutaneously injected respectively, and 100 μL of normal saline was injected for the control group. The drug was administered for consecutive 4 days, and mice were euthanized on the 5th day, and the area of abscess was measured.

[3] = ATCC25922, Table 3, read-out: MIC E. coli ATCC 25922
[4] = ATCC43300, Table 3, read-out: MIC S. aureus ATCC 43300
[5] = ATCC25922, Table 4, read-out: E. coli ATCC 25922 MIC
[6] = ATCC43300, Table 4, read-out: S. aureus ATCC 43300 MIC
[7] = average proliferation inhibition rate at the dosage of 40 μM

Structure (SMILES)	MIC (E. coli ATCC 25922; [3]) [mg/L]	MIC (S. aureus ATCC 43300; [4]) [mg/L]	MIC (E. coli ATCC 25922; [5]) [mg/L]	MIC (S. aureus ATCC 43300; [6]) [mg/L]	inhibition at 40 µM (Hela; [7]) [%]	also measured
COc1cc(-c2c(F)cc3c(=O)c(C(=O)O)cn(C4CC4)c3c2OC)ccc1NC(C)=O [Example 66]	0.1 to 1 (≈ 0.227 to 2.27 µM)	0.1 to 1 (≈ 0.227 to 2.27 µM)	–	–	–	–
CCn1cc(C(=O)O)c(=O)c2cc(OC)c(-c3ccc(N)nc3)c(C)c21 [Example 74]	0.1 to 1 (≈ 0.283 to 2.83 µM)	0.1 to 1 (≈ 0.283 to 2.83 µM)	–	–	–	–
O=C(CCl)Nc1cnc(-c2cc3c(cc2F)c(=O)c(C(=O)O)cn3C2CC2)cn1 [Example 96]	≤ 0.1	≤ 0.1	–	–	–	–
O=C(O)c1cn(C2CC2)c2cc(-c3ccc4c(c3)S(=O)(=O)NC4)c(F)cc2c1=O [Example 113]	≤ 0.1	≤ 0.1	≤ 1	≤ 1	≥ 20	–
N#Cc1cc(-c2cc3c(cc2F)c(=O)c(C(=O)O)cn3C2CC2)ccc1S(=O)(=O)NCCCC(F)(F)F [Example 111]	0.1 to 1 (≈ 0.186 to 1.86 µM)	0.1 to 1 (≈ 0.186 to 1.86 µM)	–	–	–	–
Nc1cc(-c2c(F)cc3c(=O)c(C(=O)O)cn(C4CC4)c3c2Cl)ccn1 [Example 151]	≤ 0.1	≤ 0.1	≤ 1	≤ 1	≥ 20	–
COc1c(-c2ccnc(CO)c2)c(F)cc2c(=O)c(C(=O)O)cn(C3CC3)c12 [Example 148]	≤ 0.1	1 to 8 (≈ 2.6 to 20.8 µM)	≤ 1	≥ 1	≥ 20	–
Nc1cnc(-c2cc3c(cc2F)c(=O)c(C(=O)O)cn3C2CC2)cc1F [Example 91]	0.1 to 1 (≈ 0.28 to 2.8 µM)	0.1 to 1 (≈ 0.28 to 2.8 µM)	–	–	–	–
CCCCCCCNS(=O)(=O)c1ccc(-c2cc3c(cc2F)c(=O)c(C(=O)O)cn3C2CC2)cn1 [Example 128]	1 to 8 (≈ 1.99 to 15.9 µM)	≤ 0.1	≥ 1	≤ 1	≥ 20	–
CC(=O)Nc1ccc(-c2cc3c(cc2F)c(=O)c(C(=O)O)cn3C2CC2)nc1 [Example 93]	–	–	–	–	–	MIC (E. coli ATCC 25922; ATCC25922, read-out: E. coli ATCC 25922 MIC): ≤ 1 mg/L; MIC (E. coli ATCC 25922; ATCC25922, read-out: MIC E. coli ATCC 25922): 0.1 to 1 mg/L (≈ 0.262 to 2.62 µM); MIC (S. aureus ATCC 43300; ATCC43300, read-out: MIC S. aureus ATCC 43300): 0.1 to 1 mg/L (≈ 0.262 to 2.62 µM); MIC (S. aureus ATCC 43300; ATCC43300, read-out: S. aureus ATCC 43300 MIC): ≤ 1 mg/L; inhibition at 40 µM (Hela): ≥ 20%
Nc1cc(-c2nc3c(cc2F)c(=O)c(C(=O)O)cn3C2CC2)ccn1.O=CO [Example 56]	0.1 to 1	0.1 to 1	–	–	–	–
CN[C@H](CC(C)C)C(=O)N[C@H]1C(=O)N[C@@H](CC(N)=O)C(=O)N[C@H]2C(=O)N[C@H]3C(=O)N[C@H](C(=O)N[C@H](C(=O)O)c4cc(O)cc(O)c4-c4cc3ccc4O)[C@H](O)c3ccc(c(Cl)c3)Oc3cc2cc(c3O[C@@H]2O[C@H](CO)[C@@H](O)[C@H](O)[C@H]2O[C@H]2C[C@](C)(N)[C@H](O)[C@H](C)O2)Oc2ccc(cc2Cl)[C@H]1O [vancomycin]	–	–	–	–	–	MIC at the end of the resistance experiment [1]: 4 mg/L
COc1c(-c2ccc([S+]([O-])CCO)cc2)c(F)cc2c(=O)c(C(=O)O)cn(C3CC3)c12 (centres unmarked) [Example 86]	0.1 to 1 (≈ 0.224 to 2.24 µM)	≤ 0.1	≤ 1	≤ 1	≥ 20	–
CCCCCNS(=O)(=O)c1ccc(-c2c(F)cc3c(=O)c(C(=O)O)cn(C4CC4)c3c2OC)cc1 [Example 80]	0.1 to 1 (≈ 0.199 to 1.99 µM)	≤ 0.1	≤ 1	≤ 1	≥ 50	–
COc1c(-c2ncncn2)c(F)cc2c(=O)c(C(=O)O)cn(C3CC3)c12 [Example 77]	0.1 to 1 (≈ 0.281 to 2.81 µM)	0.1 to 1 (≈ 0.281 to 2.81 µM)	–	–	–	–
O=C(O)c1cn(C2CC2)c2cc(-c3ccnc(NC(=O)C(F)(F)F)c3)c(F)cc2c1=O [Example 57]	0.1 to 1 (≈ 0.23 to 2.3 µM)	0.1 to 1 (≈ 0.23 to 2.3 µM)	–	–	–	–
O=C(O)c1cn(C2CC2)c2c(Cl)c(-c3ccc(S(=O)(=O)NCCO)cc3)c(F)cc2c1=O [Example 89]	0.1 to 1 (≈ 0.208 to 2.08 µM)	≤ 0.1	≤ 1	≤ 1	≥ 20	–
COc1c(-c2ccc(S(N)(=O)=O)c([N+](=O)[O-])c2)c(F)cc2c(=O)c(C(=O)O)cn(C3CC3)c12 [Example 110]	≤ 0.1	≤ 0.1	–	–	–	–
C#CCNS(=O)(=O)c1ccc(-c2cc3c(cc2F)c(=O)c(C(=O)O)cn3C2CC2)cc1[N+](=O)[O-] [Example 116]	0.1 to 1 (≈ 0.206 to 2.06 µM)	0.1 to 1 (≈ 0.206 to 2.06 µM)	–	–	–	–
Nc1cnc(-c2cc3c(cc2F)c(=O)c(C(=O)O)cn3C2CC2)nc1 [Example 83]	0.1 to 1 (≈ 0.294 to 2.94 µM)	0.1 to 1 (≈ 0.294 to 2.94 µM)	–	–	–	–
O=C(O)c1cn(C2CC2)c2cc(-c3ccc(S(=O)(=O)NCCCCCCO)cc3)c(F)cc2c1=O [Example 29, 1-cyclopropyl-6-fluoro-7-(4-(N-(6-hydroxyhexyl)sulfamoyl)phenyl)-4-oxo-1,4-dihydroquinolin-3-carboxylic acid]	–	–	–	–	–	reduction of necrosis area compared with the control group ([2]; 0.02 mg/kg subcutaneous): 78.09%; reduction of necrosis area compared with the control group ([2]; 2 mg/kg subcutaneous): 81.21%; antibacterial effect in skin infection model ([2]; (corresponding to 0.02 mg/kg, 200 mg/kg)): good antibacterial effect; observation at the subcutaneous administration site ([2]; mouse, in vivo, sc, 200 mg/kg): certain bleeding symptom in body surface appeared at the subcutaneous administration site
O=C(O)c1cn(C2CC2)c2cc(-c3ccc4c(c3)CNS4(=O)=O)c(F)cc2c1=O [Example 107]	0.1 to 1 (≈ 0.241 to 2.41 µM)	≤ 0.1	≤ 1	≤ 1	≥ 20	–
CS(=N)(=O)c1ccc(-c2cc3c(cc2F)c(=O)c(C(=O)O)cn3C2CC2)cc1 (centres unmarked) [Example 64]	0.1 to 1 (≈ 0.25 to 2.5 µM)	0.1 to 1 (≈ 0.25 to 2.5 µM)	–	–	–	–
